Measurements taken from US20230416307A1, “[…] PEPTIDES FOR ENHANCING VIRAL PRODUCTION” (Synvivia, Inc., priority 2022, published 2023).

Tested on: AAV6
Test: Single-site amino acid substitution scanning of CPs by enrichment score in AAV6
Assay type: cell-based, adeno-associated virus
Conditions: FIG. 29, relative to original CP
Excerpt: This plot visually depicts the functional impact of mutations on a particular cyclic peptide as measured by enrichment score. The heatmap provides valuable insights into the mutational landscape of cyclic peptides, highlighting positions where certain amino acid substitutions are either not tolerated (e.g., resulting in depletion), are neutral (e.g., resulting in similar enrichment scores), or are favored (e.g., resulting in higher enrichment, indicating enhanced cyclic peptide variants).
The heatmap is structured with rows indicating the position of the original amino acid, while the columns represent the position of the mutated amino acid (for a given row). The X-axis corresponds to the 20 natural amino acid substitutions for a given cyclic peptide residue index. The Y axis represents the amino acids present in a specific cyclic peptide, starting from the top with the “scar” residue from the peptide cyclization splicing reaction of DNA expressed cyclic peptides. The scar residue is typically amino acids containing a nucleophilic side chain like cysteine, serine, or threonine. Each row is labeled by the native amino acid of a given CP with amino acid positions going from top to bottom (e.g. index 1 is at the top, followed by index 2 followed by, index 3, etc. . . . ). The final amino acid at the bottom cyclizes with the scar residue at top. […]

Which “enrichment factor of single-site substitution variant” value does the source give for “Ser2Pro: CSSLT with serine in residue index 2 substituted with proline (CPSLT; cyclic; Cyclic peptide that was found to enhance AAV TU:VG ratio and lentiviral titer.)” here?
The value was “substantially increased enrichment factors”.
